Laboratory results taken from patent publication US8466203B2, “Method of stabilizing human eye tissue by reaction with nitrite and related agents such as nitro compounds” (priority 2006, dated 2013).
Where two headings read alike, the source gives them in different places.

Key:
porcine sclera [1] = assay: Thermal shrinkage temperature analysis of porcine scleral strips
Excerpt: Thermal shrinkage temperature or denaturation temperature (Ts) is a technique that has been used for decades in studying collagen cross-linking. As collagen fibers are progressively heated, a threshold temperature is reached at which point disruption of hydrogen bonding in the collagen molecule triple helix occurs, resulting in unwinding of the triple helices. The denaturation of tertiary protein structure results in a rapid shrinkage of the tissue of up to 80%. This phenomenon can be expressed in various ways including temperature of onset of tissue shrinkage, temperature at maximal tissue shrinkage, and temperature at 50% of maximal tissue shrinkage, for example. In addition, differential scanning calorimetry (DSC) is related to thermal shrinkage temperature analysis and is widely used to evaluate biomaterial cross-linking. Thermal shrinkage temperature is essentially a simplified version of DSC and can be used effectively to screen the cross-linking efficacy of compounds. For the purposes of this study, the onset of shrinkage is considered the Ts and the temperature at which 50% of maximal shrinkage has occurred is T50. Graphs depicting the relationship between degree of shrinkage and temperature indicate differences in degree of cross-linking between groups. Thus, stabilization of collagen fiber structures through non-enzymatic cross-linking increases Ts and T50.
This system can perform multiple Ts assays in succession, allowing rapid screening of a number of potential cross-linking agents and conditions. […] Inlet and outlet fittings allow for constant circulation of heated water which is modulated by a digitally controlled water bath equipped with a water pump. The entire box is placed on a digital photo scanner connected to a Windows based computer. Beginning at 50° C. the temperature is raised at a rate of 1° C./min and serial scans are taken at every degree increase in temperature up to 80° C. […] As the tissue shrinks, the images are captured by the scanner. The image files are later analyzed for 2-dimensional area using NIH Image J software and % shrinkage calculations are made using Microsoft Excel for graphing purposes. This method obviates the need for removal of tissue pieces from the water bath with manual micrometer measurements as described by the UVR group (Spoerl, E., et al., 2004).
Using this simple, reproducible assay enables the screening of a number of compounds for cross-linking efficacy. This is first performed using porcine eyes because of their low cost. Follow up studies can be performed using human eyes. Porcine eyes are obtained within 6 hrs of sacrifice (Hatfield Meat Packing, Inc., Hatfield Pa.). Eyes showing clear corneas and intact epithelia are chosen for study. […] Each strip is then cross-linked using a nitro agent. […] Opthalmol. 1999; 117:166-169) for 24-96 hrs. Following incubation, the samples are evaluated for degree of cross-linking using the Ts assay as described above.
From the data, Ts curves are generated for each compound and condition studied. Each data point is the average of 3 independent samples.

Solubility in water = format: physicochemical
ARPE-19 cells = system: ARPE-19 cells
Excerpt: A cytotoxicity study was undertaken to obtain an impression of the level of cellular tolerance to these compounds. For pilot experiments ARPE-19 cells were used. This is an immortal human retinal pigment epithelial cell line commonly used for experiments related to macular degeneration. In these pilot studies, the ARPE-19 cells serve as a surrogate for cytotoxicity experiments. Primary cultures of bovine corneal endothelial cells were also used in the cytotoxicity studies described. Bovine corneal cells have more direct relevance for evaluating potential cytotoxic effects during cross-linking of living eye tissue.
ARPE-19 cells were grown to 80% confluence in 96 well tissue culture plates. The cells were then exposed to varying concentrations of NaNO2 and 2-nitroethanol in their culture medium and evaluated for cell death using trypan blue (TB) staining (0.4% for 5 min) after 24 hrs.

[2] = 4° C.
Experimental: Adult porcine eyes were obtained within 12 hours of. sacrifice and submerged in solutions of 0, 10, 100 mM NaNO2 and 100 mM NaCl buffered with 50 mM NaH2PO4/Na2HPO4 (pH 7.4) following bubbling with 99% Argon/1% O2 in order to limit the amount of potential nitrite auto-oxidation caused by oxygen. Penicillin/Streptomycin was added (10 μl/ml) to prevent bacterial overgrowth. After 24 hours of incubation at 4° C., the aqueous humor was sampled for nitrite concentration using a modification of the Greiss colorimetric assay.
Adult porcine eyes were obtained within 12 hrs of sacrifice and submerged in solutions of 0, 10, 100 mM NaNO2 and 100 mM NaCl buffered with 50 mM NaH2PO4/Na2HPO4 (pH 7.4) following bubbling with 100% Argon in order to limit the amount of potential nitrite auto-oxidation caused by oxygen. Penicillin/Streptomycin was added (10 ul/ml) to prevent bacterial overgrowth. After 24 hrs of incubation at 4° C., the aqueous humor was sampled for nitrite concentration using a modification of the Greiss colorimetric assay.

[3] = system: fibroblast-populated collagen gels; settings: 100 mM; pretreatment pH 4.0 24 hours and posttreatment pH 7.4 seven days
Experimental: Biaxial mechanical properties of the collagen gels were examined by performing equibiaxial load controlled experiments after 72 hours of culture for pretreated and 10 days of culture for posttreated collagen gels. To perform the planar biaxial mechanical test, the loading frame was first removed and the gels were floated to the top of their Petri dish using standard media (DMEM with 10% FBS and antibiotics) at 37° C. Gels were loaded by applying equal weights on all sides of the gel simultaneously (equibiaxial loading). First, gels were preconditioned by cyclically applying and removing 1 gram weights on all sides. […] One prominent feature of the preconditioning response in these gels is that the gels undergo some permanent deformation, not relaxing back to their initial dimensions even when fully unloaded.
The magnitude of the permanent deformation associated with preconditioning was quantified by computing the associated strain (E^P11, E^P22) using the unloaded configuration of the gel at the beginning of the mechanical test as the reference state and the new, stable unloaded state achieved at the end of preconditioning as the deformed state. After preconditioning, calibrated weights from 0 to 1000 mg are applied equibiaxially in 100 mg increments. Images of the gel surface are taken 30 seconds after each load application or removal, and the strains associated with each load were computed relative to the preconditioned unloaded reference state at the beginning of the loading run.
The impact of sodium nitrite on vertical deformation of uniaxially constrained gels was measured during each phase of the experiment.
Initially square fibroblast-populated collagen gels were cast and allowed to polymerize for 2 hrs. Markers were painted on the gel surface to allow tracking of deformation in the central region during the remainder of the experiment. […] At 72 hrs, the gel was mechanically tested. […] Then, the gel was loaded in a series of smaller steps and the response quantified (loading phase).

type I collagen = type I collagen (Bos taurus, UniProt P02453+P02465); settings: 7 day incubation, pH 7.4, 4° C.
Experimental: Samples of pepsin-solubilized, bovine skin collagen type I (Purecol, 3 mg/ml, Inamed Corporation, Fremont, Calif., USA) dissolved in 0.012N HCl were spiked with dH2O containing 1M NaNO2 or NaCl concentration to obtain final concentrations of 0 mM, 10 mM, 100 mM NaNO2, and 100 mM NaCl. […] These conditions were identical to those used in the preincubation treatment of collagen for biomechanical testing. Following a 24 hour incubation (4° C.), an aliquot from each sample was added into SDS-PAGE sample buffer (Biorad) in a ratio of 1:2 (sample:sample buffer), reduced by heating at 100° C. for 5 minutes with dithiothreitol (DTT), and analyzed by SDS-PAGE. The separating gel was 5% acrylamide and stacking gel 4%. Equivalent quantities of protein (6 μg per lane) were loaded onto separate wells. The samples were run at 25 volts for approximately 3.5 hours, which was the time necessary for the dye front to leave the bottom of the gel. The gels were then stained with Coomasie blue solution for no less than 3 hours. Following destaining, the gels were digitally photographed for densitometric analysis, which was carried out using the Un-Scan-it software program version 4.1 (Silk Scientific Corp). […]

porcine cornea [4] = assay: Gross stiffness of porcine corneal strips handled with a forceps; settings: 100 mM, pH 7.4, 37° C., 48 hrs
Experimental: Fresh porcine corneal strips and corneoscleral complexes obtained within 6 hrs of sacrifice and incubated at 37° C. in buffered solutions (pH 7.4) containing 20% Dextran (T500) and either 100 mM NaNO2 or 100 mM of one each of the specified β-nitro alcohols
These images were taken from tissues cross-linked with nitrite and the β-nitro alcohols 2-nitroethanol, 2-nitro-1-propanol, and […], for 48 hrs. […] Fresh porcine corneal strips and corneoscleral complexes were obtained within 6 hrs of sacrifice and incubated at 37° C. in buffered solutions (pH 7.4) containing 20% Dextran (T500) and either 100 mM NaNO2 or 100 mM of one each of the β-nitro alcohols. After 48 hrs, the following images were obtained. […] FIGS. 13 (B and D)

porcine cornea [5] = settings: 200 mM, pH 5.0, 37° C.
Experimental: (§1) Adult porcine eyes were obtained within 12 hours of sacrifice and submerged in a solution of either 200 mM NaNO2 or 200 mM NaCl buffered with 200 mM NaH2PO4/Na2HPO4 (pH 5.0). Penicillin/Streptomycin was added (10 μl/ml) to prevent bacterial overgrowth. After 30 hours of incubation at 37° C., the corneas were excised at the limbus and photographed.
After 30 and 80 hours of incubation at 37° C., the corneas were excised at the limbus and subjected to shrinkage temperature (thermal denaturation) analysis. The intact cornea was heated in 2° C. increments every 5 minutes using a digitally controlled water bath. The maximal dimensions in the long and short axis were measured using a micrometer under visualization with an operating microscope. The percentage of tissue shrinkage was then estimated by using 2 dimensional area calculations from the micrometer readings.

porcine sclera [6] = settings: 200 mM, pH 5.0, 37° C., 30 hours
Experimental: as §1

porcine cornea [7] = settings: 200 mM, pH 5.0, 37° C., 30 hours
Experimental: as §1

corneal endothelial cell = settings: 3 hrs exposure, rabbit organ culture, electron microscopy, Green 1977; cited from earlier work
[8] = 100 mM, 1% DMSO, pH 7.4, 96 hrs
[9] = NaNO2 100 mM pH 3 with 1 mM urea
[10] = NaNO2 100 mM pH 3 with 10 mM urea
[11] = NaNO2 100 mM pH 3 with 100 mM urea

type I collagen, sequence (P02453 162-1217 limits assumed): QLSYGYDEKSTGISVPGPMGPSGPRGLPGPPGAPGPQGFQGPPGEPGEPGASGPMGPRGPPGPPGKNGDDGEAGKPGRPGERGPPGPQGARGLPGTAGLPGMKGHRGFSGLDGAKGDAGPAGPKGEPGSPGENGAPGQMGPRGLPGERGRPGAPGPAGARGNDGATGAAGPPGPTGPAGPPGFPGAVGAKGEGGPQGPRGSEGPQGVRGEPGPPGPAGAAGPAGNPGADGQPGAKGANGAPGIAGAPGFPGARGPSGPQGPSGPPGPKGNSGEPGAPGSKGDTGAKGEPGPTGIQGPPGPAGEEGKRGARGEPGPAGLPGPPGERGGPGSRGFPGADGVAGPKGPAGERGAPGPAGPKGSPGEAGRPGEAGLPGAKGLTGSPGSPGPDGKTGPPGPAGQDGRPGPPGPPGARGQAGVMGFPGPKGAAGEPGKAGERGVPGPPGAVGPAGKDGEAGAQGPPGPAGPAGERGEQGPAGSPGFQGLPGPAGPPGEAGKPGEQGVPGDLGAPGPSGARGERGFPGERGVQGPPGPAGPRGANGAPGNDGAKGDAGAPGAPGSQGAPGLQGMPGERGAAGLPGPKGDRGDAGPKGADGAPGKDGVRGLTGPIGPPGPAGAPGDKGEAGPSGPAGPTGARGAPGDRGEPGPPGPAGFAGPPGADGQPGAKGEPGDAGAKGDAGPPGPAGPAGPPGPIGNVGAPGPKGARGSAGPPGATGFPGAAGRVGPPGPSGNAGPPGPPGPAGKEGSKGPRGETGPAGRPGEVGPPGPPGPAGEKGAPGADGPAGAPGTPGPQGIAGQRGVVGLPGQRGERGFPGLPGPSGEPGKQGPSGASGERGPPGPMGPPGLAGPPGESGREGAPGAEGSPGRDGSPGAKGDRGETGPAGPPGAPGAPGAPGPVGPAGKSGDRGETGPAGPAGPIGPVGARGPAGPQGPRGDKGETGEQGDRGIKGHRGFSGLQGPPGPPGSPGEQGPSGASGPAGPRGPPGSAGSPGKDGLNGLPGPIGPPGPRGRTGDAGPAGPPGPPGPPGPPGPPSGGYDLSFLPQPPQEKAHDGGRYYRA
type I collagen, sequence (P02465 80-1117 limits assumed): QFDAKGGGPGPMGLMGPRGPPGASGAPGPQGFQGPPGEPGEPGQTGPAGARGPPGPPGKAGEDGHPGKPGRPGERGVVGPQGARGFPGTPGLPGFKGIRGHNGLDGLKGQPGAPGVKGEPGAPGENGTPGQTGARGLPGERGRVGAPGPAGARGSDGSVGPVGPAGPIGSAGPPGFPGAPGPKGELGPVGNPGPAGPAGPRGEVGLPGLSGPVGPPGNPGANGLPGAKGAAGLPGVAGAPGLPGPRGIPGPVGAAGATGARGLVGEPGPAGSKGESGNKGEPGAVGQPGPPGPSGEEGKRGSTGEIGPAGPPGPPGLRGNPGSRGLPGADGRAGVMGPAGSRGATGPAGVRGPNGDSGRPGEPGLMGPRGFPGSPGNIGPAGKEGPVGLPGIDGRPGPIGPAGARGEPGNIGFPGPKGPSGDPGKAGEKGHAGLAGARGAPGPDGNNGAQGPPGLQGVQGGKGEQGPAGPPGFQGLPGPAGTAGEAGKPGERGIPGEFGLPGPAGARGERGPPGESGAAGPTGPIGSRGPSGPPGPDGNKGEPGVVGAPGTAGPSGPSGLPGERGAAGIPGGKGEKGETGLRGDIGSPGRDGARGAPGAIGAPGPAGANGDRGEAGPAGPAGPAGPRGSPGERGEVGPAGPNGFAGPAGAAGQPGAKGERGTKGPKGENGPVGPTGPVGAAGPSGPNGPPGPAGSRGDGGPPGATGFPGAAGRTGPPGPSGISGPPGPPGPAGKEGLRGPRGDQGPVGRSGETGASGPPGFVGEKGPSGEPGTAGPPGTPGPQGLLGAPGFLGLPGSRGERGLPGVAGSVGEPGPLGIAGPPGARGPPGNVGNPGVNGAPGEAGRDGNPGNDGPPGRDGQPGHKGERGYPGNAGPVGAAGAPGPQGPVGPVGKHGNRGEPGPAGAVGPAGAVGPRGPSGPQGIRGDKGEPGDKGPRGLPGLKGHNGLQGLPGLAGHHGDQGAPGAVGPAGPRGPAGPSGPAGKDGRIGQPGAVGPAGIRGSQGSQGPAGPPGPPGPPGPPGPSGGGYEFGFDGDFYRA

CC(C)CCON=O [Isopentyl nitrite, isopentyl nitrite, reference compound]
T50 (porcine sclera [1]; [8]): 65.4 °C | T50 Δ (porcine sclera [1]; [8]): 0.1 °C | shift in Ts (in words) (porcine sclera [1]; neutral pH, up to 100 mM): did not result in a shift in Ts | solubility in water (Solubility in water): poor solubility in water

O=N[O-].[Na+] [NaNO2, sodium nitrite]
tolerable level relative to genipin (ARPE-19 cells): at least 100 × | tolerance by cells (trypan blue) (ARPE-19 cells; 100 mM, 24 hrs): tolerated by cells | highest tolerated level (ARPE-19 cells; ARPE-19): 100 mM | Nitrite concentration in the aqueous humor, of the incubation fluid ([2]; 10 mM NaNO2, pH 7.4, 24 hours): 35.5% | Nitrite concentration in the aqueous humor, of the incubation fluid ([2]; 100 mM NaNO2, pH 7.4, 24 hours): 62.8% | vertical deformation associated with preconditioning [3]: reduced vertical deformation associated with preconditioning | vertical deformation at 1 g equibiaxial load [3]: reduced vertical deformation at 1 g equibiaxial load | vertical remodeling [3]: reduced vertical remodeling | collagen cross-linking by SDS-PAGE (type I collagen; 10 mM): No differences are observed | collagen cross-linking by SDS-PAGE (type I collagen; 100 mM): cross-linking of collagen primary strands is indicated | stiffness change when handled with a forceps (porcine cornea [4]): intermediate effect | increase of onset of tissue shrinkage (porcine cornea [5]; 30 hours of treatment): approximately 4 °C | increase of onset of tissue shrinkage (porcine cornea [5]; 80 hours of treatment): ~8 °C | contour changes in sclera samples (porcine sclera [6]): dramatic contour changes | blocking of the cross-linking effect by equimolar urea (porcine sclera [1]): unable to block | T50 (porcine sclera [1]; 100 mM, pH 3, 96 hrs): 69.3 °C | T50 Δ (porcine sclera [1]; 100 mM, pH 3, 96 hrs): 4.0 °C | T50 (porcine sclera [1]; 100 mM, pH 5, 96 hrs): 67.3 °C | T50 Δ (porcine sclera [1]; 100 mM, pH 5, 96 hrs): 2.0 °C | T50 (porcine sclera [1]; [9]): 70.1 °C | T50 Δ (porcine sclera [1]; [9]): 4.8 °C | T50 (porcine sclera [1]; [10]): 69.7 °C | T50 Δ (porcine sclera [1]; [10]): 4.4 °C | T50 (porcine sclera [1]; [11]): 65.6 °C | T50 Δ (porcine sclera [1]; [11]): 0.3 °C | shifts in Ts (in words) (porcine sclera [1]; pH 3): approximately equal shifts in Ts | T50 (temperature at 50% of maximal shrinkage) (porcine sclera [1]; pH 7.4): 65.7 °C | T50 Δ (change in 50% shrinkage temperature compared to control) (porcine sclera [1]; pH 7.4): 0.4 °C | effect on Ts (in words) (porcine sclera [1]; pH 7.4): no effect | contour changes in the corneas (porcine cornea [7]): Dramatic contour changes

Benzalkonium chloride
Toxic concentration (corneal endothelial cell): (0.0001%)
